The source of these data is article PMC12121777 (PLOS One, 2025).

In brackets after ≈: the same amount, converted by molar mass. Like-named read-outs stand apart in the source and are kept apart here.

One assay has as its system Mtb 331/88 (i.e., H37Rv). Kind of assay: MIC, micro method in Šula's semisynthetic medium, drug-susceptible Mtb. The class given is cell-based, Mycobacterium tuberculosis. The note with it: Mycobacterium tuberculosis, H37RV.
The subject of assay [1] is Mycobacterium avium 330/88. Kind of assay: MIC, micro method in Šula's semisynthetic medium, M. avium. The class given is cell-based. Particulars: read-out: MIC M. avium 330/88.
In assay [2] the test system is Mycobacterium kansasii 6509/96. As to the kind of experiment: MIC, micro method in Šula's semisynthetic medium, M. kansasii clinical isolate. The class given is cell-based. The note with it: read-out: MIC M. kansasii 6509/96.
In another assay the test system is HepG2 cells. Kind of assay: Cytotoxicity on HepG2 cell line (CellTiter 96). The class given is cell-based, human. The note with it: Homo sapiens, read-out: IC50 HepG2.
In another assay the test system is Mtb H37Ra pVV2. Kind of assay: microbe, parasite or virus in culture. The class given is cell-based. The note with it: Mycobacterium tuberculosis, 672 h, 28 days.
In the next assay the test system is Mtb H37Ra pVV2-dprE2. Kind of assay: microbe, parasite or virus in culture. The class given is cell-based. Particulars: Mycobacterium tuberculosis, 672 h, 28 days.
The subject of assay [3] is Mtb H37Ra pVV2-dprE1/dprE2. As to the kind of experiment: microbe, parasite or virus in culture. The class given is cell-based. The note with it: Mycobacterium tuberculosis, 672 h, 28 days.
In a further assay the test system is Mtb H37Rv. As to the kind of experiment: Metabolic labeling with 14C acetate and TLC lipid analysis. The note with it: 10× and 100× MIC, 14C acetate, 24 h.
The next assay has as its system Bacillus subtilis. Also on record: method as in PMID 30988267. Particulars: cited from earlier work.
In the next assay the test system is Staphylococcus aureus. Also on record: method as in PMID 30988267. Particulars: cited from earlier work.
The test system of another assay is Mtb. On the set-up: method as in PMID 33462533. The note with it: cited from earlier work.

Regarding `CCCCCCCCCCCCCCCNc1nnc(-c2cc([N+](=O)[O-])cc([N+](=O)[O-])c2)o1` [Compound 5o, 5-(3,5-Dinitrophenyl)-N-pentadecyl-1,3,4-oxadiazol-2-amine], the MIC against Mtb 331/88 (i.e., H37Rv) (336 h, 14 days) was 2 µM (≈ 0.923 µg/mL); in the assay on Mtb 331/88 (i.e., H37Rv) (504 h, 21 days), 2 µM (≈ 0.923 µg/mL); in assay [1] (330/88, 336 h), 8 µM (≈ 3.69 µg/mL); in assay [1] (330/88, 504 h), 16 µM (≈ 7.39 µg/mL); in assay [2] (6509/96, 168 h), 0.5 µM (≈ 0.231 µg/mL); in assay [2] (6509/96, 336 h), 1 µM (≈ 0.462 µg/mL). Also, the MIC in [2] (6509/96, 504 h) stood at 2 µM (≈ 0.923 µg/mL). Also, the IC50 (as a rule, the concentration that gives 50% inhibition) in the assay with HepG2 cells (HepG2, 24 h) was greater than 50 µM.
Turning to `CCCCCCCCCCCCNc1nnc(-c2cc([N+](=O)[O-])cc([N+](=O)[O-])c2)s1` [Compound 5s, 5-(3,5-Dinitrophenyl)-N-dodecyl-1,3,4-thiadiazol-2-amine], the MIC turned out to be 1 µM (≈ 0.436 µg/mL) against Mtb 331/88 (i.e., H37Rv) (336 h, 14 days); 1 µM (≈ 0.436 µg/mL) in the assay on Mtb 331/88 (i.e., H37Rv) (504 h, 21 days); 64 µM (≈ 27.9 µg/mL) in assay [1] (330/88, 336 h); 125 µM (≈ 54.4 µg/mL) in assay [1] (330/88, 504 h); 1 µM (≈ 0.436 µg/mL) in assay [2] (6509/96, 168 h); 1 µM (≈ 0.436 µg/mL) in [2] (6509/96, 336 h). The MIC is 1 µM (≈ 0.436 µg/mL) in assay [2] (6509/96, 504 h); less than 0.1 µM against Mtb H37Ra pVV2; less than 0.1 µM in the assay with Mtb H37Ra pVV2-dprE2; 0.5 µM (≈ 0.218 µg/mL) in [3]. For the same compound, the “lipid profile of treated cells vs untreated cells” value with Mtb H37Rv was “accumulation of TMM and TDM”.
In the case of `NNC(=O)c1ccncc1` [INH, isoniazid, reference compound], the MIC in the assay on Mtb 331/88 (i.e., H37Rv) (336 h, 14 days) was 0.5 µM (≈ 0.0686 µg/mL); with Mtb 331/88 (i.e., H37Rv) (504 h, 21 days), 0.5 µM (≈ 0.0686 µg/mL); in assay [1] (330/88, 336 h, 14 days, * = growth still observed at this concentration, turbidity or precipitate above), greater than 250 µM; in assay [1] (330/88, 504 h, 21 days, * = growth still observed at this concentration, turbidity or precipitate above) it was greater than 250 µM; in assay [2] (6509/96, 168 h, 7 days), 4 µM (≈ 0.549 µg/mL); in assay [2] (6509/96, 336 h, 14 days), 8 µM (≈ 1.1 µg/mL). Moreover, the MIC in assay [2] (6509/96, 504 h, 21 days) was found to be 8 µM (≈ 1.1 µg/mL). Further, the IC50 in the assay with HepG2 cells (HepG2, 24 h incubation) was greater than 1000 µM.
Consider `Cc1ccc(-c2nnc(NC(=O)c3ccc([N+](=O)[O-])cc3)o2)cc1` [IX], for which, in the assay with Bacillus subtilis, the MIC was 780 µg/mL (≈ 2410 µM).
On to `Cc1ccc(C(=O)Nc2nnc(-c3ccc(C)cc3)o2)cc1` [VIII], for which the MIC with Staphylococcus aureus is 1560 µg/mL (≈ 5320 µM).
`O=C(Nc1nnc(COc2ccccc2)o1)c1ccc([N+](=O)[O-])cc1` [X]: in the assay with Bacillus subtilis, the MIC was 780 µg/mL (≈ 2290 µM).
For `O=c1nc(N2CCN(CC3CCCCC3)CC2)sc2c([N+](=O)[O-])cc(C(F)(F)F)cc12` [macozinone], in the assay with Mtb, the “MIC for Mtb” value was 0.002 µM.
